Laboratory results as given in patent publication US20260000685A1, “PHARMACEUTICAL COMPOSITION FOR PREVENTING OR TREATING DEGENERATIVE BRAIN DISEASES, COMPRISING CANNABINOIDS AS ACTIVE INGREDIENT, AND USES THEREOF” (NEOCANNBIO CO., LTD., priority 2022, published 2026).

Assays:
[1] = tested on: Alzheimer's animal model (Aβ1-42 treated mice); assay: Morris water maze test in Aβ1-42 Alzheimer's animal model; type: in vivo, ICR mice; conditions: compared to mice treated only with Aβ1-42; for learning ability (finding submerged platform during training session): CBDA 6.25 μM or THCA 12.5 μM, 3 μL/mouse into hippocampus, FIGS. 11 and 12; for time spent in the target quadrant (probe test) / time spent in the platform area (probe test) / number of times crossed the platform area (probe test): probe test on the 5th day; for time spent in the target quadrant (probe test): FIG. 13A; for time spent in the platform area (probe test): FIG. 13B; for number of times crossed the platform area (probe test): FIG. 13C
Method: (§1) Female ICR mice (8 weeks old) used in the experiment were purchased from Coretech (Pyeongtaek, Korea). Mice were housed in the animal care facility of the Korea Institute of Science and Technology (KIST) (temperature 22±2° C., humidity 40-60%, 12-hour light/dark cycle). Mice were housed in an environment with free access to food and water. All animal experiments were conducted in accordance with the protocol approval of the Animal Ethics Committee of our institution.
(§2) Next, to create an animal model, mice were randomly selected and divided into four groups as follows: PBS treated group (PBS+PBS), Aβ1-42 treated group (Aβ1-42 +PBS) (Alzheimer's animal model), CBDA treated group (Δβ1-42+CBDA (6.25 µM, 3 μL/mouse)), and THCA treated group (Δβ1-42+THCA (12.5 μM, 3 μL/mouse)).
(§3) After anesthetizing the isolated mice by intraperitoneal (i.p.) injection of avertin (250 mg/kg), the mice were fixed in a stereotaxic apparatus, and CBDA, THCA, Aβ1-42, or PBS (3 μl/15 min/mouse) were gradually delivered to the hippocampus using a Hamilton syringe (coordinates of bregma: mediolateral (ML)=1.30 mm, anteroposterior (AP)=−2.00 mm, dorsoventral=−2.20 mm).
Specifically, a circular tank (diameter 90 cm, height 50 cm, water temperature 22 ±2° C.) was used for the test, and the tank consisted of four quadrants filled with water. An escape platform (diameter 6 cm, height 29 cm) was submerged 1 cm below the water surface in the center of one of the four quadrants. Experimental mice were trained for 4 days to learn and memorize visual cues placed outside the tank indicating the platform location. The swimming paths of the experimental mice were recorded with a camera connected to a video recorder and path tracking software (EthoVision; Noldus Information Technology, Wageningen, The Netherlands). Four tests were conducted daily during the 4-day training period. During each trial, the experimental mice were allowed 60 seconds to find the hidden platform and an additional 30 seconds to remain on the platform. […] The average time it took each experimental mouse to find the platform (average escape latency) was recorded. Probe tests were conducted 4 days later in the same manner without the platform. Each experimental mouse was allowed to move freely for 60 seconds, which was recorded. Videos were analyzed using tracking software (EthoVision; Noldus Information Technology, Wageningen, The Netherlands) to calculate the time spent in the target quadrant area and the number of crossings in the platform area.

[2] = tested on: amyloid beta (Aβ); assay: Western blot of Aβ in hippocampal tissues of animal model; type: in vivo, ICR mice; conditions: day 19; compared to Aβ1-42 treated group; FIG. 15
Method: (§4) To conduct Western blotting, tissues were homogenized in radioimmunoprecipitation assay buffer (Cell Signaling) to acquire tissue lysates. Tissue protein concentrations were determined using the Bio-Rad protein assay (Bio-Rad, Hercules, CA, USA), and Western blot analysis was conducted using 80-120 μg of protein. Next, the Western blotting samples prepared using the proteins were separated using 12% SDS-PAGE and transferred to a polyvinylidene fluoride membrane (PVDF) (Merck Millipore, Burlington, MA, USA; 0.4 μm). The PVDF was blocked with tris-buffered saline including 5% bovine serum albumin and Tween-20, and incubated with primary antibodies overnight at 4° C. After primary antibody incubation, the samples were incubated with HRP-conjugated secondary antibody (Sigma; 1:5000) for 1 hour at room temperature, and immunodetection was conducted using an enhanced chemiluminescence detection kit (GE Healthcare, Chicago, IL, USA).
Specifically, hippocampal tissues were acquired on day 19 from the animal models created in Example 7 above (PBS treated group, Aβ1-42 treated group, CBDA treated group, and THCA treated group), and Western blot analysis was conducted on the hippocampal tissues to evaluate the expression levels of APP (Amyloid Precursor Protein), polymeric Aβ, and oligomeric Aβ.

[3] = tested on: phosphorylated tau (p-Tau); assay: Western blotting of Tau/p-Tau in Aβ1-42-treated primary neuronal cells; type: cell-based, ICR mice; conditions: with Aβ1-42 (5 μM), 24 hours; compared to Aβ1-42 alone; FIG. 7
Method: as §4
Specifically, primary neuronal cells derived from ICR mice were cultured for 6 days, and then treated with CBDA, THCA, THC, or CBN compounds while treating with Aβ1-42 (5 μM), and treated together for 24 hours. Next, to confirm the expression levels of Tau and phosphorylated Tau (p-Tau) in the cells, Western blotting was conducted using the method disclosed in Example 4 above.

[4] = tested on: Alzheimer's animal model (Aβ1-42 treated mice); assay: Object location test (OLT) in Aβ1-42 Alzheimer's animal model; type: in vivo, ICR mice; conditions: compared to mice treated with only Aβ1-42; FIG. 14
Method: as §1, §2, §3
First, the Novel Object Recognition Test (NOR) was conducted to examine a natural tendency of the experimental mice to explore novel stimuli. For this purpose, during the habituation session conducted 2 days before the test, the mice were allowed to explore the test environment consisting of an opaque custom-made Plexiglas box (35 cm×45 cm×25 cm) for 10 minutes. The sample object phase was conducted 24 hours later. Two identical white circular cylinders (sample objects) were placed on opposite edges of the test environment, and mice were given access to the objects for 10 minutes. After 4 hours (novel object stage), one of the sample objects in the test environment was replaced with a similarly sized novel object (colored miniature animal), and the mouse was allowed to contact this novel arrangement for 5 minutes. The time when the mouse's nose stayed <1 cm away from the object was considered the time the mouse explored the object, excluding the time when the mouse stood on the object. The identification rate was calculated as the time spent exploring the novel object relative to the time spent exploring the two objects.
Additionally, for the object location test (OLT), it was conducted in the same manner as the novel object recognition test described above, but on the last day of the object location test, one of the two sample objects was moved to a different location and the test was conducted.

[5] = tested on: primary neuronal cells; assay: Inhibition of Aβ1-42-induced neuron apoptosis (MTS cell viability); type: cell-based, ICR mice; conditions: for cell survival rate level: different concentrations with Aβ1-42 (5 μM), 24 hours, compared to control treated with Aβ1-42 alone, FIG. 2; for neuron apoptosis inhibition efficacy: same concentration of CBDA, CBD, THCA and THC, Memantine as positive control, FIG. 3
Method: Specifically, primary neuronal cells derived from ICR mice were seeded in 96-wells at 5×10^5 cells per well and cultured for 6 days. Afterwards, the six compounds of Example 1 above were treated at different concentrations and Aβ1-42 (5 μM) was treated to induce neuron apoptosis, and the cells were treated together for 24 hours. Afterwards, a MTS solution was added to the medium and incubated for 2 hours. Cytotoxicity (cell viability) was measured using a microplate spectrophotometer (Bio-Tek Power Wave XS, Winooski, VT, USA), and absorbance was measured at 490 nm.
Next, the neuron apoptosis inhibition efficacy for the same concentration of CBDA, CBD, THCA and THC was evaluated using the same method as above. Memantine, known as an Alzheimer's treatment, was used as a positive control group.

Structure (SMILES)	learning ability (finding submerged platform during training session) [1]	time spent in the target quadrant (probe test) [1]	time spent in the platform area (probe test) [1]	number of times crossed the platform area (probe test) [1]	expression level of Aβ in hippocampal tissues [2]	expression level of p-Tau [3]	phosphorylation level of p-Tau [3]	identification rate (OLT) [4]	time investigating the object moved to a different location [4]	cell survival rate level [5]	neuron apoptosis inhibition efficacy [5]
C=C(C)[C@@H]1CCC(C)=C[C@H]1c1c(O)cc(CCCCC)c(C(=O)O)c1O [CBDA]	significantly enhanced	spent more time	spent more time	increased	significantly reduced	significantly reduced	significantly reduced	significantly increased	spent more time	significantly increased	better neuron apoptosis inhibition efficacy
CCCCCc1cc2c(c(O)c1C(=O)O)[C@@H]1C=C(C)CC[C@H]1C(C)(C)O2 [THCA, (6aR, 10aR)-1-Hydroxy-6,6,9-trimethyl-3-pentyl-6a,7,8,10a-tetrahydro-6H-benzo[c]chromene-2-carboxylic acid]	significantly enhanced	spent more time	spent more time	increased	significantly reduced	significantly reduced	significantly reduced	significantly increased	spent more time	significantly increased	better neuron apoptosis inhibition efficacy
